Measured values taken from patent US20130165446A1 (priority 2010, published 2013).

biological target: T1, human recombinant (CHO cell) AT1 receptor (Homo sapiens, UniProt P30556); experiment: Angiotensin II inhibition test (radioligand binding to AT1 receptor); details: test compound concentration 10^−9 M; radioactive iodine-labeled angiotensin II, 37° C., sixty minutes
T1 construct: expressed in transfected cells; host or cells: CHO cells
T1 sequence (P30556 1-359): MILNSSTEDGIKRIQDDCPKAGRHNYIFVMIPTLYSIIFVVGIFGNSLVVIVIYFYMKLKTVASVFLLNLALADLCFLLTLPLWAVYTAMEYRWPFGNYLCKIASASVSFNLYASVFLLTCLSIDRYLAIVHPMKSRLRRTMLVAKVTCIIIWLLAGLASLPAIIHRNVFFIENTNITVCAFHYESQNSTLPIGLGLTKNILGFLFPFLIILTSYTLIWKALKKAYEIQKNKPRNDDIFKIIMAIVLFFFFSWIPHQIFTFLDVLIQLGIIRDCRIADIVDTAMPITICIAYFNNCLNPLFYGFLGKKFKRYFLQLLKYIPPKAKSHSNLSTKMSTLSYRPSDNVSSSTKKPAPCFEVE
Protocol: A test of inhibition of angiotensin II to human recombinant (CHO cell) AT1 receptor following a method described in the literature (for example, Regul. Pept., vol. 44 (2), page 131 (1993)) was used to measure inhibitory activity to a test compound.
The ligand used was 10^−9 M of a test compound dissolved in 1% DMSO (dimethylsulfoxide). This was reacted with radioactive iodine-labeled angiotensin II at 37° C. for sixty minutes. Taking the inhibition rate of angiotensin II at 10 μM as nonspecific binding, the specific binding rate was calculated by subtracting this nonspecific portion. Table 6 indicates the results (the inhibition rate at test compound concentration: 10^−9 M)

Point of comparison: CCCc1nc(CSc2ccc(Oc3ccc4nc(COc5ccc(CC6SC(=O)NC6=O)cc5)n(C)c4c3)cc2)c(C(=O)NC)n1Cc1ccc(-c2ccccc2-c2nnn[nH]2)cc1 (stereo not drawn) [Example 27, N-methyl-(4-[4-{2-[4-(2,4-dioxothiazolidyn-5-ylmethyl)phenoxymethyl]-1-methyl-1H-benzimidazol-6-yloxy}phenylthiomethyl]-2-propyl-1-[2′-(1H-tetrazol-5-yl)biphenyl-4-ylmethyl]-1H-imidazole)-5-carboxamide], “Inhibition rate (%)” value 66%. Against it:
- CCCc1nc(CSCCNC(=O)CSc2ccc3nc(COc4ccc(CC5SC(=O)NC5=O)cc4)n(C)c3c2)c(C(=O)OCC)n1Cc1ccc(-c2ccccc2-c2nnn[nH]2)cc1 (stereo not drawn) [Example 19] — lower, 65%
- CCCc1nc2c(C)cc(-c3nc4ccc(N(C)CCOc5ccc6nc(COc7ccc(CC8SC(=O)NC8=O)cc7)n(C)c6c5)cc4n3C)cc2n1Cc1ccc(-c2ccccc2-c2nnn[nH]2)cc1 (stereo not drawn) [Example 3, 5-[4-[6-{2-(N-(1-methyl-2-[4-methyl-2-propyl-1-(2′-(1H-tetrazol-5-yl)biphenyl-4-ylmethyl)-1H-benzimidazol-6-yl]-1H-benzamidazol-6-yl)-N-methylamino)ethoxy}-1-methyl-1H-benzimidazol-2-ylmethoxy]benzyl]thiazolidine-2,4-dione] — lower, 60%
- CCCc1nc(COc2ccc(Sc3ccc4nc(COc5ccc(CC6SC(=O)NC6=O)cc5)n(C)c4c3)cc2)c(C(=O)OCC)n1Cc1ccc(-c2ccccc2-c2nnn[nH]2)cc1 (stereo not drawn) [Example 29, 4-[4-{2-[4-(2,4-dixothiazolidin-5-ylmethyl)phenoxymethyl]-1-methyl-1H-benzimidazol-6-ylthio}phenoxymethyl]-2-propyl-1-[2′-(1H-tetrazol-5-yl)biphenyl-4-ylmethyl]-1H-imidazole-5-carboxylic acid ethyl ester] — lower, 40%

same assay, conditions: test compound concentration 10^−9 M; radioactive iodine-labeled angiotensin II, 37° C., sixty minutes; read-out: Inhibition rate (%)

Point of comparison: CCCc1nc(CSc2ccc3nc(COc4ccc(CN(CC(=O)O)C(=O)Oc5ccccc5)cc4)n(C)c3c2)c(C(=O)OCC)n1Cc1ccc(-c2ccccc2-c2nnn[nH]2)cc1 [Example 36, N-[4-{6-[5-ethoxycarbonyl-1-{2′-(1H-tetrazol-5-yl)biphenyl-4-ylmethyl}-2-propyl-1H-imidazol-4-ylmethylthio]-1-methyl-1H-benzimidazol-2-ylmethoxy}phenylmethyl]-N-phenyloxycarbonylaminoacetic acid], inhibition at 0.001 µM 83%. Against it:
- CCCc1nc2c(C)cc(-c3nc4ccc(N(C)CCOc5ccc(CC6SC(=O)NC6=O)cc5)cc4n3C)cc2n1Cc1ccc(-c2ccccc2C(=O)O)cc1 (stereo not drawn) [Example 22, 4′-[6-{6-(N-2-[4-(2,4-dioxothiazolidin-5-ylmethyl)phenoxy]ethyl-N-methylamino)-1-methyl-1H-benzimidazol-2-yl}-4-methyl-2-propyl-1H-benzimidazol-1-ylmethyl]biphenyl-2-carboxylic acid] — lower, 60%
- CCCc1nc(COc2ccc3nc(COc4ccc(CC5SC(=O)NC5=O)cc4)n(C)c3c2)c(C(=O)OCC)n1Cc1ccc(-c2ccccc2-c2nnn[nH]2)cc1 (stereo not drawn) [Example 7, 4-{2-[4-(2,4-dioxothiazolidin-5-ylmethyl)phenoxymethyl]-1-methyl-1H-benzimidazol-6-yloxymethyl}-2-propyl-1-[2′-(1H-tetrazol-5-yl)biphenyl-4-ylmethyl]-1H-imidazole-5-carboxylic acid ethyl ester] — lower, 52%
- CCCc1nc(CS(=O)(=O)c2ccc(Oc3ccc4nc(COc5ccc(CC6SC(=O)NC6=O)cc5)n(C)c4c3)cc2)c(C(=O)OCC)n1Cc1ccc(-c2ccccc2-c2nnn[nH]2)cc1 (stereo not drawn) [Example 26, 4-[4-{2-[4-(2,4-dioxothiazolidin-5-ylmethyl)phenoxymethyl]-1-methyl-1H-benzimidazol-6-yloxy}phenylsulfonylmethyl]-2-propyl-1-[2′-(1H-tetrazol-5-yl)biphenyl-4-ylmethyl]-1H-imidazole-5-carboxylic acid ethyl ester] — lower, 44%
- CCCc1nc(CNc2ccc(Oc3ccc4nc(COc5ccc(CC6SC(=O)NC6=O)cc5)n(C)c4c3)cc2)c(C(=O)OCC)n1Cc1ccc(-c2ccccc2-c2nnn[nH]2)cc1 (stereo not drawn) [Example 31, 4-{N-[4-[2-(4-[2,4-dioxothiazolidin-5-ylmethyl]phenoxymethyl)-1-methyl-1H-benzimidazol-6-yloxy]phenyl]aminomethyl}-2-propyl-1-[2′-(1H-tetrazol-5-yl)biphenyl-4-ylmethyl]-1H-imidazole-5-carboxylic acid ethyl ester] — lower, 22%
- CCCc1nc2c(C)cc(COc3ccc4nc(COc5ccc(CC6SC(=O)NC6=O)cc5)n(C)c4c3)cc2n1Cc1ccc(-c2ccccc2-c2nnn[nH]2)cc1 (stereo not drawn) [Example 1, 5-(4-{6-[4-methyl-2-propyl-1-[2′-(1H-tetrazol-5-yl)biphenyl-4-ylmethyl]-1H-benzimidazol-6-ylmethoxy]-1-methyl-1H-benzimidazol-2-ylmethoxy}benzyl)thiazolidine-2,4-dione] — lower, 51%
- CCCc1nc(CSCCOc2ccc3nc(COc4ccc(CC5SC(=O)NC5=O)cc4)n(C)c3c2)c(C(=O)OCC)n1Cc1ccc(-c2ccccc2-c2nnn[nH]2)cc1 (stereo not drawn) [Example 15, 4-[2-[1-methyl-2-{4-(2,4-dioxothiazolidin-5-ylmethyl)phenoxymethyl}-1H-benzimidazol-6-yloxy]ethylthiomethyl]-2-propyl-1-[2′-(1H-tetrazol-5-yl)biphenyl-4-ylmethyl]-1H-imidazole-5-carboxylic acid ethyl ester] — lower, 47%
- CCCc1nc(CSc2ccc3nc(COc4ccc(CC(OCc5ccc(Cl)cc5)C(=O)O)cc4)n(C)c3c2)c(C(=O)OCC)n1Cc1ccc(-c2ccccc2-c2nnn[nH]2)cc1 (stereo not drawn) [Example 35, 3-[4-[6-(5-ethoxycarbonyl-1-{2′-(1H-tetrazol-5-yl)biphenyl-4-ylmethyl}-2-propyl-1H-imidazol-4-ylmethylthio)-1-methyl-1H-benzimidazol-2-ylmethoxy]phenyl]-2-(4-chlorobenzyloxy)propionic acid] — higher, 90%
- CCCc1nc2c(C)cc(CN(C)c3ccc4nc(COc5ccc(CC6SC(=O)NC6=O)cc5)n(C)c4n3)cc2n1Cc1ccc(-c2ccccc2C(=O)O)cc1 (stereo not drawn) [Example 10, 4′-[6-(N-{2-[4-(2,4-dioxothiazolidin-5-ylmethyl)phenoxymethyl]-3-methyl-3H-imidazo[4,5-b]pyridin-5-yl}-N-methylaminomethyl)-4-methyl-2-propyl-1H-benzimidazol-1-ylmethyl]biphenyl-2-carboxylic acid] — lower, 41%
- CCCCc1nc(Cl)c(C[S+]([O-])c2ccc3nc(COc4ccc(CC5SC(=O)NC5=O)cc4)n(C)c3c2)n1Cc1ccc(-c2ccccc2-c2nnn[nH]2)cc1 (stereo not drawn) [Example 23, 5-(4-{6-[2-butyl-4-chloro-1-[2′-(1H-tetrazol-5-yl)biphenyl-4-ylmethyl]-1H-imidazol-5-ylmethylsulfinyl]-1-methyl-1H-benzimidazol-2-ylmethoxy}benzyl)thiazolidine-2,4-dione] — lower, 22%
- CCCc1nc2c(C)cc(C(=O)NCc3ccc(Oc4ccc5nc(COc6ccc(CC7SC(=O)NC7=O)cc6)n(C)c5c4)cc3)cc2n1Cc1ccc(-c2ccccc2-c2nnn[nH]2)cc1 (stereo not drawn) [Example 28, 5-[4-[6-{4-(4-methyl-2-propyl-1-[2′-(1H-tetrazol-5-yl)biphenyl-4-ylmethyl]-1H-benzimidazol-6-ylcarbonylaminomethyl)phenoxy}-1-methyl-1H-benzimidazol-2-ylmethoxy]benzyl]thiazolidin-2,4-dione] — lower, 66%
- CCCc1nc(CSCCSc2ccc(Oc3ccc4nc(COc5ccc(CC6SC(=O)NC6=O)cc5)n(C)c4c3)cc2)c(C(=O)OCC)n1Cc1ccc(-c2ccccc2-c2nnn[nH]2)cc1 (stereo not drawn) [Example 14, 4-[2-[4-{1-methyl-2-(4-(2,4-dioxothiazolidin-5-ylmethyl)phenoxymethyl)-1H-benzimidazol-6-yloxy}phenylthio]ethylthiomethyl]-2-propyl-1-[2′-(1H-tetrazol-5-yl)biphenyl-4-ylmethyl]-1H-imidazole-5-carboxylic acid ethyl ester] — lower, 38%
- CCCc1nc(CSc2ccc3nc(COc4ccc(CC5SC(=O)NC5=O)cc4)n(C)c3c2)c(C(=O)OCC)n1Cc1ccc(-c2ccccc2-c2nnn[nH]2)cc1 (stereo not drawn) [Example 33, 4-{2-[4-(2,4-dioxothiazolidin-5-ylmethyl)phenoxymethyl]-1-methyl-1H-benzimidazol-6-ylthiomethyl}-2-propyl-1-[2′-(1H-tetrazol-5-yl)biphenyl-4-ylmethyl]-1H-imidazole-5-carboxylic acid ethyl ester] — higher, 87%
- CCCc1nc(C[S+]([O-])c2ccc(Oc3ccc4nc(COc5ccc(CC6SC(=O)NC6=O)cc5)n(C)c4c3)cc2)c(C(=O)OCC)n1Cc1ccc(-c2ccccc2-c2nnn[nH]2)cc1 (stereo not drawn) [Example 25, 4-[4-{2-[4-(2,4-dioxothiazolidin-5-ylmethyl)phenoxymethyl]-1-methyl-1H-benzimidazol-6-yloxy}phenylsulfinylmethyl]-2-propyl-1-[2′-(1H-tetrazol-5-yl)biphenyl-4-ylmethyl]-1H-imidazole-5-carboxylic acid ethyl ester] — lower, 32%
